# Test results published in the supplement of paper PMC10307832.
# What was measured:
# Assay in all cases: relative viability (nuclei count vs DMSO), 5 days (fraction); higher = more cells survive
# Afatinib + OSI-027 = compound: CN(C)C/C=C/C(=O)Nc1cc2c(Nc3ccc(F)c(Cl)c3)ncnc2cc1O[C@H]1CCOC1 [Afatinib] + COc1cccc2cc(-c3nc([C@H]4CC[C@H](C(=O)O)CC4)n4ncnc(N)c34)[nH]c12 [OSI-027] (partner 0.5 µM)
# In short: (§1)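 One day after seeding in 1536-well plates, lung cancer cell lines were dosed by pin tool. Dosing was either single-drug or a fixed anchor-drug dose plus five library-drug doses (not always all listed) in √10 steps. After 5 days, nuclei were stained in one fix-and-stain step and counted on 4× images, and relative viability is the nuclei count of treated wells over that of vehicle wells, given as the median of duplicate plates.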
# Afatinib + Lapatinib = compound: CN(C)C/C=C/C(=O)Nc1cc2c(Nc3ccc(F)c(Cl)c3)ncnc2cc1O[C@H]1CCOC1 [Afatinib] + CS(=O)(=O)CCNCc1ccc(-c2ccc3ncnc(Nc4ccc(OCc5cccc(F)c5)c(Cl)c4)c3c2)o1 [Lapatinib] (partner 2 µM)
# In short: as §1
# Afatinib + Linsitinib = compound: CN(C)C/C=C/C(=O)Nc1cc2c(Nc3ccc(F)c(Cl)c3)ncnc2cc1O[C@H]1CCOC1 [Afatinib] + C[C@]1(O)C[C@@H](c2nc(-c3ccc4ccc(-c5ccccc5)nc4c3)c3c(N)nccn32)C1 [Linsitinib] (partner 1 µM)
# In short: as §1
# Afatinib + Alpelisib = compound: CN(C)C/C=C/C(=O)Nc1cc2c(Nc3ccc(F)c(Cl)c3)ncnc2cc1O[C@H]1CCOC1 [Afatinib] + Cc1nc(NC(=O)N2CCC[C@H]2C(N)=O)sc1-c1ccnc(C(C)(C)C(F)(F)F)c1 [Alpelisib] (partner 2 µM)
# In short: as §1
cell line,measurement,setting,value
NCI-H1975,relative viability,Afatinib + OSI-027; first compound 0.005 µM,0.81
same,relative viability,Afatinib + OSI-027; first compound 0.01581 µM,0.644
same,relative viability,Afatinib + OSI-027; first compound 0.05 µM,0.688
same,relative viability,Afatinib + OSI-027; first compound 0.1581 µM,0.303
same,relative viability,Afatinib + OSI-027; first compound 0.5 µM,0.147
same,relative viability,Afatinib + Lapatinib; first compound 0.005 µM,0.895
same,relative viability,Afatinib + Lapatinib; first compound 0.01581 µM,0.685
same,relative viability,Afatinib + Lapatinib; first compound 0.05 µM,0.529
same,relative viability,Afatinib + Lapatinib; first compound 0.1581 µM,0.283
same,relative viability,Afatinib + Lapatinib; first compound 0.5 µM,0.239
same,relative viability,Afatinib + Linsitinib; first compound 0.005 µM,0.901
same,relative viability,Afatinib + Linsitinib; first compound 0.01581 µM,1.1
same,relative viability,Afatinib + Linsitinib; first compound 0.05 µM,0.794
same,relative viability,Afatinib + Linsitinib; first compound 0.1581 µM,0.261
same,relative viability,Afatinib + Linsitinib; first compound 0.5 µM,0.217
same,relative viability,Afatinib + Alpelisib; first compound 0.005 µM,0.628
same,relative viability,Afatinib + Alpelisib; first compound 0.01581 µM,0.511
same,relative viability,Afatinib + Alpelisib; first compound 0.05 µM,0.43
same,relative viability,Afatinib + Alpelisib; first compound 0.1581 µM,0.197
same,relative viability,Afatinib + Alpelisib; first compound 0.5 µM,0.206
NCI-H1993,relative viability,Afatinib + OSI-027; first compound 0.005 µM,0.519
same,relative viability,Afatinib + OSI-027; first compound 0.01581 µM,0.588
same,relative viability,Afatinib + OSI-027; first compound 0.05 µM,0.674
same,relative viability,Afatinib + OSI-027; first compound 0.1581 µM,0.697
same,relative viability,Afatinib + OSI-027; first compound 0.5 µM,0.564
same,relative viability,Afatinib + Lapatinib; first compound 0.005 µM,0.835
same,relative viability,Afatinib + Lapatinib; first compound 0.01581 µM,0.848
same,relative viability,Afatinib + Lapatinib; first compound 0.05 µM,1.11
same,relative viability,Afatinib + Lapatinib; first compound 0.1581 µM,1.01
same,relative viability,Afatinib + Lapatinib; first compound 0.5 µM,0.848
same,relative viability,Afatinib + Linsitinib; first compound 0.005 µM,0.714
same,relative viability,Afatinib + Linsitinib; first compound 0.01581 µM,0.736
same,relative viability,Afatinib + Linsitinib; first compound 0.05 µM,0.803
same,relative viability,Afatinib + Linsitinib; first compound 0.1581 µM,0.822
same,relative viability,Afatinib + Linsitinib; first compound 0.5 µM,0.696
same,relative viability,Afatinib + Alpelisib; first compound 0.005 µM,0.608
same,relative viability,Afatinib + Alpelisib; first compound 0.01581 µM,0.771
same,relative viability,Afatinib + Alpelisib; first compound 0.05 µM,0.721
same,relative viability,Afatinib + Alpelisib; first compound 0.1581 µM,0.765
same,relative viability,Afatinib + Alpelisib; first compound 0.5 µM,0.705
NCI-H2009,relative viability,Afatinib + OSI-027; first compound 0.005 µM,0.635
same,relative viability,Afatinib + OSI-027; first compound 0.01581 µM,0.633
same,relative viability,Afatinib + OSI-027; first compound 0.05 µM,0.714
same,relative viability,Afatinib + OSI-027; first compound 0.1581 µM,0.516
same,relative viability,Afatinib + OSI-027; first compound 0.5 µM,0.459
same,relative viability,Afatinib + Lapatinib; first compound 0.005 µM,0.964
same,relative viability,Afatinib + Lapatinib; first compound 0.01581 µM,0.934
same,relative viability,Afatinib + Lapatinib; first compound 0.05 µM,1.07
same,relative viability,Afatinib + Lapatinib; first compound 0.1581 µM,0.995
same,relative viability,Afatinib + Lapatinib; first compound 0.5 µM,1.01
same,relative viability,Afatinib + Linsitinib; first compound 0.005 µM,1.23
same,relative viability,Afatinib + Linsitinib; first compound 0.01581 µM,1.14
same,relative viability,Afatinib + Linsitinib; first compound 0.05 µM,1.23
same,relative viability,Afatinib + Linsitinib; first compound 0.1581 µM,1.13
same,relative viability,Afatinib + Linsitinib; first compound 0.5 µM,1.22
same,relative viability,Afatinib + Alpelisib; first compound 0.005 µM,1.23
same,relative viability,Afatinib + Alpelisib; first compound 0.01581 µM,1.15
same,relative viability,Afatinib + Alpelisib; first compound 0.05 µM,1.22
same,relative viability,Afatinib + Alpelisib; first compound 0.1581 µM,1.17
same,relative viability,Afatinib + Alpelisib; first compound 0.5 µM,1.14
NCI-H2023,relative viability,Afatinib + OSI-027; first compound 0.005 µM,0.38
same,relative viability,Afatinib + OSI-027; first compound 0.01581 µM,0.354
same,relative viability,Afatinib + OSI-027; first compound 0.05 µM,0.394
same,relative viability,Afatinib + OSI-027; first compound 0.1581 µM,0.351
same,relative viability,Afatinib + OSI-027; first compound 0.5 µM,0.279
same,relative viability,Afatinib + Lapatinib; first compound 0.005 µM,0.744
same,relative viability,Afatinib + Lapatinib; first compound 0.01581 µM,0.853
same,relative viability,Afatinib + Lapatinib; first compound 0.05 µM,0.896
same,relative viability,Afatinib + Lapatinib; first compound 0.1581 µM,0.809
same,relative viability,Afatinib + Lapatinib; first compound 0.5 µM,0.964
same,relative viability,Afatinib + Linsitinib; first compound 0.005 µM,0.577
same,relative viability,Afatinib + Linsitinib; first compound 0.01581 µM,0.494
same,relative viability,Afatinib + Linsitinib; first compound 0.05 µM,0.453
same,relative viability,Afatinib + Linsitinib; first compound 0.1581 µM,0.355
same,relative viability,Afatinib + Linsitinib; first compound 0.5 µM,0.414
same,relative viability,Afatinib + Alpelisib; first compound 0.005 µM,0.608
same,relative viability,Afatinib + Alpelisib; first compound 0.01581 µM,0.544
same,relative viability,Afatinib + Alpelisib; first compound 0.05 µM,0.446
same,relative viability,Afatinib + Alpelisib; first compound 0.1581 µM,0.408
same,relative viability,Afatinib + Alpelisib; first compound 0.5 µM,0.434
NCI-H2085,relative viability,Afatinib + OSI-027; first compound 0.005 µM,0.71
same,relative viability,Afatinib + OSI-027; first compound 0.01581 µM,0.61
same,relative viability,Afatinib + OSI-027; first compound 0.05 µM,0.541
same,relative viability,Afatinib + OSI-027; first compound 0.1581 µM,0.366
same,relative viability,Afatinib + OSI-027; first compound 0.5 µM,0.366
same,relative viability,Afatinib + Lapatinib; first compound 0.005 µM,0.857
same,relative viability,Afatinib + Lapatinib; first compound 0.01581 µM,0.762
same,relative viability,Afatinib + Lapatinib; first compound 0.05 µM,0.851
same,relative viability,Afatinib + Lapatinib; first compound 0.1581 µM,0.743
same,relative viability,Afatinib + Lapatinib; first compound 0.5 µM,0.76
same,relative viability,Afatinib + Linsitinib; first compound 0.005 µM,0.726
same,relative viability,Afatinib + Linsitinib; first compound 0.01581 µM,0.773
same,relative viability,Afatinib + Linsitinib; first compound 0.05 µM,0.769
same,relative viability,Afatinib + Linsitinib; first compound 0.1581 µM,0.417
same,relative viability,Afatinib + Linsitinib; first compound 0.5 µM,0.675
same,relative viability,Afatinib + Alpelisib; first compound 0.005 µM,0.944
same,relative viability,Afatinib + Alpelisib; first compound 0.01581 µM,0.873
same,relative viability,Afatinib + Alpelisib; first compound 0.05 µM,0.812
same,relative viability,Afatinib + Alpelisib; first compound 0.1581 µM,0.659
same,relative viability,Afatinib + Alpelisib; first compound 0.5 µM,0.803
NCI-H2087,relative viability,Afatinib + OSI-027; first compound 0.005 µM,0.731
same,relative viability,Afatinib + OSI-027; first compound 0.01581 µM,0.507
same,relative viability,Afatinib + OSI-027; first compound 0.05 µM,0.652
same,relative viability,Afatinib + OSI-027; first compound 0.1581 µM,0.753
same,relative viability,Afatinib + OSI-027; first compound 0.5 µM,0.383
same,relative viability,Afatinib + Lapatinib; first compound 0.005 µM,0.973
same,relative viability,Afatinib + Lapatinib; first compound 0.01581 µM,1.07
same,relative viability,Afatinib + Lapatinib; first compound 0.05 µM,1.09
same,relative viability,Afatinib + Lapatinib; first compound 0.1581 µM,0.946
same,relative viability,Afatinib + Lapatinib; first compound 0.5 µM,0.929
same,relative viability,Afatinib + Linsitinib; first compound 0.005 µM,0.985
same,relative viability,Afatinib + Linsitinib; first compound 0.01581 µM,0.916
same,relative viability,Afatinib + Linsitinib; first compound 0.05 µM,1.01
same,relative viability,Afatinib + Linsitinib; first compound 0.1581 µM,0.918
same,relative viability,Afatinib + Linsitinib; first compound 0.5 µM,0.986
same,relative viability,Afatinib + Alpelisib; first compound 0.005 µM,1.23
same,relative viability,Afatinib + Alpelisib; first compound 0.01581 µM,1.18
same,relative viability,Afatinib + Alpelisib; first compound 0.05 µM,1
same,relative viability,Afatinib + Alpelisib; first compound 0.1581 µM,1.28
same,relative viability,Afatinib + Alpelisib; first compound 0.5 µM,1.02
NCI-H2126,relative viability,Afatinib + OSI-027; first compound 0.005 µM,0.732
same,relative viability,Afatinib + OSI-027; first compound 0.01581 µM,0.641
same,relative viability,Afatinib + OSI-027; first compound 0.05 µM,0.547
same,relative viability,Afatinib + OSI-027; first compound 0.1581 µM,0.494
same,relative viability,Afatinib + OSI-027; first compound 0.5 µM,0.415
same,relative viability,Afatinib + Lapatinib; first compound 0.005 µM,0.779
same,relative viability,Afatinib + Lapatinib; first compound 0.01581 µM,0.688
same,relative viability,Afatinib + Lapatinib; first compound 0.05 µM,0.686
same,relative viability,Afatinib + Lapatinib; first compound 0.1581 µM,0.761
same,relative viability,Afatinib + Lapatinib; first compound 0.5 µM,0.799
same,relative viability,Afatinib + Linsitinib; first compound 0.005 µM,0.724
same,relative viability,Afatinib + Linsitinib; first compound 0.01581 µM,0.701
same,relative viability,Afatinib + Linsitinib; first compound 0.05 µM,0.583
same,relative viability,Afatinib + Linsitinib; first compound 0.1581 µM,0.465
same,relative viability,Afatinib + Linsitinib; first compound 0.5 µM,0.424
same,relative viability,Afatinib + Alpelisib; first compound 0.005 µM,0.726
same,relative viability,Afatinib + Alpelisib; first compound 0.01581 µM,0.722
same,relative viability,Afatinib + Alpelisib; first compound 0.05 µM,0.653
same,relative viability,Afatinib + Alpelisib; first compound 0.1581 µM,0.504
same,relative viability,Afatinib + Alpelisib; first compound 0.5 µM,0.444
NCI-H2228,relative viability,Afatinib + OSI-027; first compound 0.005 µM,0.546
same,relative viability,Afatinib + OSI-027; first compound 0.01581 µM,0.418
same,relative viability,Afatinib + OSI-027; first compound 0.05 µM,0.589
same,relative viability,Afatinib + OSI-027; first compound 0.1581 µM,0.638
same,relative viability,Afatinib + OSI-027; first compound 0.5 µM,0.545
same,relative viability,Afatinib + Lapatinib; first compound 0.005 µM,1.29
same,relative viability,Afatinib + Lapatinib; first compound 0.01581 µM,1.01
same,relative viability,Afatinib + Lapatinib; first compound 0.05 µM,0.958
same,relative viability,Afatinib + Lapatinib; first compound 0.5 µM,1.03
same,relative viability,Afatinib + Linsitinib; first compound 0.005 µM,0.604
same,relative viability,Afatinib + Linsitinib; first compound 0.01581 µM,0.778
same,relative viability,Afatinib + Linsitinib; first compound 0.05 µM,0.631
same,relative viability,Afatinib + Linsitinib; first compound 0.5 µM,0.502
same,relative viability,Afatinib + Alpelisib; first compound 0.005 µM,0.74
same,relative viability,Afatinib + Alpelisib; first compound 0.01581 µM,0.78
same,relative viability,Afatinib + Alpelisib; first compound 0.05 µM,0.688
same,relative viability,Afatinib + Alpelisib; first compound 0.5 µM,0.589
